Results published in patent publication US4537614A, “S-aryl and S-aliphatic diamidophosphorothiolates as urease inhibitors and urease inhibited urea based fertilizer compositions” (Allied Corporation, priority 1984, dated 1985).

What was measured:
urease [1] = assay: Urease Inhibiting Efficacy Test in New York soil (Cazenovia silt loam, pH 7.2); type: biochemical; details: 25° C., 3 days, remaining urea
Method: (§1) Representative compounds were tested to evaluate their efficacy in the inhibition of urease as compared to structurally similar compounds. The inhibition tests were run in a New York soil (Cazenovia silt loam, pH 7.2) and a Wisconsin soil (Plano silt loam, pH 5.4). […] The bottle was capped with perforated aluminum foil and incubated at 25° C. for 3 days prior to extraction with 100 mL of a 2M potassium chloride solution containing 0.5 mg of phenylmercuric acetate. The extracts were then analyzed for remaining urea using an autoanalyzer. Percent inhibition was calculated as
(§2) % Inhibition=[1-(A-B/A-C)]×100%
(§3) where A is urea recovered from unincubated sample (urea added to soil and immediately extracted); B is urea recovered from inhibited sample; and C is urea recovered from the control (uninhibited sample).

urease [2] = assay: Urease Inhibiting Efficacy Test in Wisconsin soil (Plano silt loam, pH 5.4); type: biochemical; details: 25° C., 3 days, remaining urea
Method: as §1, §2, §3

urease [3] = assay: Efficacy as urease inhibitor, general statement (long term residual activity); details: primarily because of relatively long term residual activity
[4] = 800 micrograms test compound + 42.8 mg urea per 20 g air dry soil
[5] = 200 micrograms test compound (footnote *) + 42.8 mg urea per 20 g air dry soil

Compound | % Inhibition Cazenovia Soil (urease [1]; [4]) [%] | % Inhibition Cazenovia Soil (urease [1]; [5]) [%] | % Inhibition Wisconsin Soil (urease [2]; [5]) [%] | efficacy among the especially efficacious compounds (urease [3]) | % Inhibition Wisconsin Soil (urease [2]; [4]) [%]
COP(N)(N)=O [Comp. Ex. 1, reference compound] | 34 | – | – | – | –
CCCOP(N)(N)=O [Comp. Ex. 2, reference compound] | 15 | – | – | – | –
CCCCSP(N)(N)=O [Experiment 2, S-(n-Butyl) Diamidophosphorothiolate] | – | 74 | 82 | most efficacious | –
CCC(C)SP(N)(N)=O (stereo not drawn) [Experiment 3, S-(2-Butyl) Diamidophosphorothiolate] | – | 74 | 84 | – | –
CC(C)CSP(N)(N)=O [Experiment 4, S-(iso-Butyl) Diamidophosphorothiolate] | – | 80 | 83 | most efficacious | –
CCCCCCSP(N)(N)=O [Experiment 5, S-(n-Hexyl) Diamidophosphorothiolate] | – | 52 | 66 | most efficacious | –
NP(N)(=O)SC1CCCCC1 [Experiment 6, S-(Cyclohexyl) Diamidophosphorothiolate] | – | 66 | 58 | – | –
CSP(N)(N)=O [S-Methyl Diamidophosphorothiolate] | 93 | – | – | – | 93
